Tests used:
[1] = test system: sphingolipid de novo synthesis pathway; assay: Measurement of sphingolipids in tissues of aged mice treated with myriocin; assay type: in vivo, mouse
Method: To examine whether a causal relationship could underlie the correlation between SphPC1 and muscle mass and function, it was tested whether inhibition of sphingolipid de novo biosynthesis pathway could protect against age-related muscle dysfunction. Aged (18-month-old) C57Bl/6JRj mice were treated for 5 months on chow diet with myriocin, a specific inhibitor of SPT, the first and rate-limiting enzyme of the sphingolipid de novo synthesis pathway, and whose expression in skeletal muscle was negatively correlated with muscular fitness in BXDs.
Animals. Young (2-month-old) and aged (18-month-old) C57Bl/6JRj mice were purchased from Janvier Labs. EchoMRI measuring the fat and lean body mass, were measured before and after the treatment. The dose of myriocin was 0.4 mg/kg/3 times a week. Myriocin (Enzo Life Sciences, Farmingdale, N.Y.) was first dissolved in DMSO which was then mixed with PBS so that each mouse received 1.5 μL DMSO per injection. Animals were fed on a standard chow diet. All animals were housed in micro-isolator cages in a room illuminated from 7:00 AM to 7:00 PM with ad libitum access to diet and water. All the animal experiments are authorized by animal license 2890.1 and 3341 in Canton of Vaud, Switzerland.
Measurement of sphingolipids. Plasma (100 μL) and weighed tissue samples (20-60 mg) were transferred to 2 ml Safe-Lock PP-tubes, and extracted. In brief, samples were homogenized using two 6 mm steal beads on a Mixer Mill (Retsch, Haan, GER; 2×10 sec, frequency 30/s) in 700 μL MTBE/MeOH (3/1, v/v) containing 500 μmol butylated hydroxytoluene, 1% acetic acid, and 200 μmol of internal standards (IS, d18:1/17:0 ceramide, d18:1/17:0 sphingomyelin, Avanti Polar Lipids, Alabaster, Ala., USA) per sample. Total lipid extraction was performed under constant shaking for 30 min at RT. After addition of 140 μL dH2O and further incubation for 30 min on RT, samples were centrifuged at 1,000×g for 15 min to establish phase separation. 500 μL of the upper, organic phase were collected and dried under a stream of nitrogen. Lipids were resolved in 700 μL 2-propanol/methanol/water (7/2.5/1, v/v/v) for UPLC-MS analysis. Remaining tissues were dried, solubilized in NaOH (0.3 N) at 65° C. for 4 h and the protein content was determined using Pierce™ BCA reagent (Thermo Fisher Scientific, Waltham, Mass., USA) and BSA as standard.
Chromatographic separation was modified after Knittelfelder et al. using an ACQUITY-UPLC system (Waters Corporation), equipped with a Luna omega C18 column (2.1×50 mm, 1.6 μm; Phenomenex) starting a 20 min linear gradient with 80% solvent A (MeOH/H2O, 1/1, v/v; 10 mM ammonium acetate, 0.1% formic acid, 8 μM phosphoric acid). The column compartment was kept on 50° C. A EVOQ Elite™ triple quadrupole mass spectrometer (Bruker) equipped with an ESI source was used for detection of lipids in positive ionization mode. Lipid species were analyzed by selected reaction monitoring (ceramide, [M+H]+ to m/z 264.3, 22 eV, 60 ms; sphingomyelin, [M+H]+ to m/z 184.1, 20 eV, 40 ms; resolution 0.7 Q1/Q3). Data acquisition was done by MS Workstation (Bruker). Data were normalized for recovery, extraction-, and ionization efficacy by calculating analyte/IS ratios (AU) and expressed as AU/g tissue or AU/mL plasma.
Measurement of deoxysphingolipids. […] An aliquot (50 μL) of homogenate was dried under air and resuspended in RIPA buffer for protein quantification using BCA assay (BCA Protein Assay, Lambda, Biotech Inc., US). […]

[2] = test system: human primary myoblasts from IBM donors; assay: Proteostat staining of IBM patient myoblasts; assay type: cell-based; details: 30 μM MYR for 24 h
Method: FIG. 16. Quantitative Proteostat signal normalized over the number of cells in human primary myoblasts from IBM donors (above) and APPSwe-expressing C2C12 myoblasts (below) decreases after treatment with 30 μM MYR for 24 h. Values are expressed as mean±s.e.m. ***P:0.001; ****P:0.0001. Differences between two groups were assessed using Student's two-tailed t-tests (error bars: 95% confidence intervals).
Cell lines from IBM patients featuring impaired proteostasis were obtained. This was validated using Proteostat staining which targets general disruption in proteostasis.

[3] = quadriceps of aged myriocin treated mice

Structure (SMILES): CCCCCCC(=O)CCCCCCC=CCC(O)C(O)C(N)(CO)C(=O)O (stereo not shown) [myriocin, 2-Amino-3,4-dihydroxy-2-(hydroxymethyl)-14-oxoicos-6-enoic acid]
- total ceramide contents of skeletal muscle ([1]; aged (18-month-old) C57Bl/6JRj mice, myriocin 0.4 mg/kg i.p. 3 times per week, 5 months, vs DMSO): reduced
- skeletal muscle deoxysphingolipid contents ([1]; aged mice, myriocin 0.4 mg/kg i.p. 3 times per week, 5 months, smaller effect than on canonical sphingolipids): reduced
- sphinganine (SA) level in skeletal muscle [1, 3]: lower levels
- sphingosine (SO) level in skeletal muscle [1, 3]: lower levels
- individual ceramide species in skeletal muscle ([1]; quadriceps, aged mice, myriocin 0.4 mg/kg i.p. 3 times per week, 5 months): reduced
- Proteostat signal normalized over the number of cells (protein aggregates) [2]: clearing protein aggregates
- Proteostat signal normalized over the number of cells (protein aggregates) ([2]; listed as MYR): decreases
